Assay results published in ChEMBL document CHEMBL1201862, “PubChem BioAssay data set” (2004).
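Assay format: 96-well plates, 48-hour exposure. Abbreviation: GI50, concentration required for 50% inhibition of growth.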 Activity calls are given as the source filed them. Rule as the data show it: active = GI50 up to about 1.1 µM and inactive = higher.

Legend:
Assay in all cases: inhibition of tumour cell growth, NCI panel, 48 h
CCRF-CEM = system: CCRF-CEM
MDA-MB-435 = system: MDA-MB-435
COLO 205 = system: COLO 205
UACC-257 = system: UACC-257
HCT-15 = system: HCT-15
SNB-75 = system: SNB-75
A498 = system: A498
IGROV-1 = system: IGROV-1
Malme-3M = system: Malme-3M
SF-539 = system: SF-539
NCI/ADR-RES = system: NCI/ADR-RES
CAKI-1 = system: CAKI-1
HT-29 = system: HT-29
786-0 = system: 786-0
U-251 = system: U-251
BT-549 = system: BT-549
KM12 = system: KM12
NCI-H522 = system: NCI-H522
MDA-MB-231 = system: MDA-MB-231
NCI-H226 = system: NCI-H226
K562 = system: K562
OVCAR-4 = system: OVCAR-4
HCT-116 = system: HCT-116
SN12C = system: SN12C
SF-295 = system: SF-295
ACHN = system: ACHN
MCF7 = system: MCF7
EKVX = system: EKVX
UO-31 = system: UO-31
OVCAR-8 = system: OVCAR-8
LOX IMVI = system: LOX IMVI
OVCAR-3 = system: OVCAR-3
MDA-N = system: MDA-N
SW-620 = system: SW-620
SK-MEL-5 = system: SK-MEL-5
RXF 393 = system: RXF 393
SR = system: SR
SK-MEL-28 = system: SK-MEL-28
MOLT-4 = system: MOLT-4
HCC 2998 = system: HCC 2998
PC-3 = system: PC-3
SNB-19 = system: SNB-19
HOP-62 = system: HOP-62
HL-60 = system: HL-60
RPMI-8226 = system: RPMI-8226
NCI-H460 = system: NCI-H460
HOP-92 = system: HOP-92
OVCAR-5 = system: OVCAR-5
NCI-H23 = system: NCI-H23
DU-145 = system: DU-145
Hs-578T = system: Hs-578T
A549 = system: A549
TK-10 = system: TK-10
SF-268 = system: SF-268

O=[N+]([O-])c1ccc2c(c1)Sc1ccccc1N2
GI50 (CCRF-CEM): 20.7 µM (inactive) | GI50 (MDA-MB-435): 3.72 µM (inactive) | GI50 (COLO 205): 32.9 µM (inactive) | GI50 (UACC-257): > 100 µM (inactive) | GI50 (HCT-15): 27.6 µM | GI50 (SNB-75): 26.6 µM (inactive) | GI50 (A498): 14.1 µM (inactive) | GI50 (IGROV-1): 17.7 µM (inactive) | GI50 (Malme-3M): > 100 µM (inactive) | GI50 (SF-539): > 100 µM (inactive) | GI50 (NCI/ADR-RES): 14.4 µM (inactive) | GI50 (CAKI-1): > 100 µM (inactive) | GI50 (HT-29): > 100 µM (inactive) | GI50 (786-0): 64.3 µM (inactive) | GI50 (U-251): 67.3 µM (inactive) | GI50 (BT-549): > 100 µM (inactive) | GI50 (KM12): > 100 µM (inactive) | GI50 (NCI-H522): 6.73 µM (inactive) | GI50 (MDA-MB-231): 46.1 µM (inactive) | GI50 (NCI-H226): > 100 µM (inactive) | GI50 (K562): 5.41 µM (inactive) | GI50 (OVCAR-4): > 100 µM (inactive) | GI50 (HCT-116): 9.57 µM (inactive) | GI50 (SN12C): > 100 µM (inactive) | GI50 (SF-295): > 100 µM (inactive) | GI50 (ACHN): 64.1 µM (inactive) | GI50 (MCF7): 44.6 µM (inactive) | GI50 (EKVX): 11.4 µM (inactive) | GI50 (UO-31): > 100 µM (inactive) | GI50 (OVCAR-8): > 100 µM (inactive) | GI50 (LOX IMVI): 41.3 µM (inactive) | GI50 (OVCAR-3): > 100 µM (inactive) | GI50 (MDA-N): 6.12 µM (inactive) | GI50 (SW-620): 43.9 µM (inactive) | GI50 (SK-MEL-5): 9.33 µM (inactive) | GI50 (RXF 393): 37.8 µM (inactive) | GI50 (SR): 12 µM (inactive) | GI50 (SK-MEL-28): > 100 µM (inactive) | GI50 (MOLT-4): 6.34 µM (inactive) | GI50 (HCC 2998): > 100 µM (inactive) | GI50 (PC-3): 31.9 µM (inactive) | GI50 (SNB-19): 78.2 µM (inactive) | GI50 (HOP-62): 34.1 µM (inactive) | GI50 (HL-60): 5.11 µM (inactive) | GI50 (RPMI-8226): 5.79 µM (inactive) | GI50 (NCI-H460): 22.8 µM (inactive) | GI50 (HOP-92): 6.12 µM (inactive) | GI50 (OVCAR-5): > 100 µM (inactive) | GI50 (NCI-H23): 7.35 µM (inactive) | GI50 (DU-145): 74.6 µM (inactive) | GI50 (Hs-578T): 17.2 µM (inactive) | GI50 (A549): 8.51 µM (inactive) | GI50 (TK-10): > 100 µM (inactive) | GI50 (SF-268): > 100 µM (inactive)
